In assay [1] the target is GDP-bound KRAS wild-type protein (Homo sapiens, UniProt P01116). The assay is described as follows: Binding to KRAS by surface plasmon resonance (SPR), Single Cycle Kinetics. The conditions noted are these: SPR, Single Cycle Kinetics, GDP-bound KRAS wild-type protein; read-out: KRAS KD. For orientation: In SPR one partner is held on a chip, and binding of the other changes the refractive index at the surface.

The test system of assay [2] is human lung cancer strain NCI-H441. As to the kind of experiment: cells. The conditions noted are these: NCI-H441, 96 h, read-out: NCI-H441 IC50 (nM), NCI-H441 cell proliferation, 4 days, CellTiter-Glo. A general note: Cellular ATP, detected with luciferase, serves as a proxy for viable cell number.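 Note: cell proliferation inhibition after four days measured by CellTiter-Glo.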
Assay [3] has as its target GDP-bound HRAS wild-type protein (Homo sapiens, UniProt P01112). The assay is described as follows: Binding to HRAS by surface plasmon resonance (SPR), Single Cycle Kinetics. The following applies: ratio of KD for GDP-bound HRAS wild-type protein to KD for KRAS, SPR.
Assay [4] has as its target GDP-bound NRAS wild-type protein (Homo sapiens, UniProt P01111). As to the kind of experiment: Binding to NRAS by surface plasmon resonance (SPR), Single Cycle Kinetics. The conditions noted are these: ratio of KD for GDP-bound NRAS wild-type protein to KD for KRAS, SPR.

The structures appear in SMILES notation.

Broadly, the Kd is the constant that tells how readily two partners part at equilibrium.

GDP-bound NRAS wild-type protein, sequence (P01111 whole entry): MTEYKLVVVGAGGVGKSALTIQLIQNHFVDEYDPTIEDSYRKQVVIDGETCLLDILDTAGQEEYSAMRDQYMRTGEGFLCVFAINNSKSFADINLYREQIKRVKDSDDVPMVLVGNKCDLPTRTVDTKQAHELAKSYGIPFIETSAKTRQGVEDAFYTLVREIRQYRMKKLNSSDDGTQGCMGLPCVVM
GDP-bound KRAS wild-type protein, sequence (P01116 whole entry): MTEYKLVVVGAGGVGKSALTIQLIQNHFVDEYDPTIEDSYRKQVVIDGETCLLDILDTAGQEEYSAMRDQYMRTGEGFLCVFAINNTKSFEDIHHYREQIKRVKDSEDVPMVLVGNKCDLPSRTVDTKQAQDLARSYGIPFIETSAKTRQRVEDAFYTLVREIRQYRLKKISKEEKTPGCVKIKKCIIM
GDP-bound HRAS wild-type protein, sequence (P01112 whole entry): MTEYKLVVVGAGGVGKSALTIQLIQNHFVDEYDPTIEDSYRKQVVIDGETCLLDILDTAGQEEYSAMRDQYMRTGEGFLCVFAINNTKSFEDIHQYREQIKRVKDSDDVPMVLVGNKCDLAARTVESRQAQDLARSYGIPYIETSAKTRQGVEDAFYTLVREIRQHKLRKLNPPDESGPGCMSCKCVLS

In the case of `CCCC[C@H]1C(=O)N[C@@H]([C@@H](C)CC)C(=O)N(C)CC(=O)N(C)[C@H]2C/C=C\CCN(C2=O)[C@@H](Cc2ccc(C(F)(F)F)cc2)C(=O)N(C)CC(=O)N[C@@H](CCc2cc(F)c(C(F)(F)F)c(F)c2)C(=O)N2C[C@H](OCC)C[C@H]2C(=O)NC2(CC(C)(C)C2)C(=O)N(C)[C@@H](C2CCCC2)C(=O)N(C)[C@H](C(=O)N(C)C)CC(=O)N1C` [PP1649], in assay [1], the Kd amounted to 64 pM. Besides, the IC50 in assay [2] stood at 2.2 nM. Further, the “HRAS/KRAS (KD ratio)” value in assay [3] was “B (a compound having 3 or more and less than 10 is denoted as B)”. In addition, the “NRAS/KRAS (KD ratio)” value in assay [4] was “A (a compound having 10 or more and less than 20 is denoted as A)”.
With `CCO[C@@H]1C[C@H]2C(=O)NC3(CC(C)(C)C3)C(=O)N(C)[C@@H](C3CCCC3)C(=O)N(C)[C@H](C(=O)N(C)C)CC(=O)N(C)[C@@H](CC3CCC3)C(=O)N[C@@H]([C@@H](C)CC)C(=O)N(C)CC(=O)N(C)[C@H]3C/C=C\CCN(C3=O)[C@@H](Cc3ccc(C(F)(F)F)cc3)C(=O)N(C)CC(=O)N[C@@H](CCc3cc(F)c(C(F)(F)F)c(F)c3)C(=O)N2C1` [PP1651], the dissociation constant (Kd) in assay [1] is 79 pM. For the same compound, the IC50 in assay [2] came to 2.3 nM. Also, in assay [3], the “HRAS/KRAS (KD ratio)” value is “B (a compound having 3 or more and less than 10 is denoted as B)”. In assay [4], the “NRAS/KRAS (KD ratio)” value was “A (a compound having 10 or more and less than 20 is denoted as A)”.
`CCO[C@@H]1C[C@H]2C(=O)NC3(CC(C)(C)C3)C(=O)N(C)[C@@H](C3CCCC3)C(=O)N(C)[C@H](C(=O)N(C)CC)CC(=O)N(C)[C@@H](CC)C(=O)N[C@@H]([C@@H](C)CC)C(=O)N(C)CC(=O)N(C)[C@H]3C/C=C\CCN(C3=O)[C@@H](Cc3ccc(C(F)(F)F)cc3)C(=O)N(C)CC(=O)N[C@@H](CCc3ccc(C(F)(F)F)c(OC)c3)C(=O)N2C1` [PP1653]: the dissociation constant Kd in assay [1] is 97 pM. The IC50 in assay [2] came out at 1.6 nM. Further, the “HRAS/KRAS (KD ratio)” value in assay [3] is “A (a compound having 10 or more and less than 20 is denoted as A)”. In addition, the “NRAS/KRAS (KD ratio)” value in assay [4] is “A (a compound having 10 or more and less than 20 is denoted as A)”.
As for `CCO[C@@H]1C[C@H]2C(=O)NC3(CC(C)(C)C3)C(=O)N(C)[C@@H](C3CCCC3)C(=O)N(C)[C@H](C(=O)N(C)CC)CC(=O)N(C)[C@@H](CC(F)F)C(=O)N[C@@H]([C@@H](C)CC)C(=O)N(C)CC(=O)N(C)[C@H]3C/C=C\CCN(C3=O)[C@@H](Cc3ccc(C(F)(F)F)cc3)C(=O)N(C)CC(=O)N[C@@H](CCc3ccc(C(F)(F)F)c(OC)c3)C(=O)N2C1` [PP1655], the dissociation constant Kd in assay [1] worked out at 83 pM. The IC50 in assay [2] came to 1.6 nM. In addition, in assay [3], the “HRAS/KRAS (KD ratio)” value was “A (a compound having 10 or more and less than 20 is denoted as A)”. The “NRAS/KRAS (KD ratio)” value in assay [4] was “A (a compound having 10 or more and less than 20 is denoted as A)”.
Consider `CCCN(C)C(=O)[C@@H]1CC(=O)N(C)[C@@H](COC)C(=O)N[C@@H]([C@@H](C)CC)C(=O)N(C)CC(=O)N(C)[C@H]2C/C=C\CCN(C2=O)[C@@H](Cc2ccc(C(F)(F)F)cc2)C(=O)N(C)CC(=O)N[C@@H](CCc2ccc(C(F)(F)F)c(OC)c2)C(=O)N2C[C@H](OCC)C[C@H]2C(=O)NC2(CC(C)(C)C2)C(=O)N(C)[C@@H](C2CCCC2)C(=O)N1C` [PP1656], for which, in assay [1], the Kd came to 65 pM. The IC50 in assay [2] stood at 1.5 nM. In addition, in assay [3], the “HRAS/KRAS (KD ratio)” value was “A (a compound having 10 or more and less than 20 is denoted as A)”. Besides, the “NRAS/KRAS (KD ratio)” value in assay [4] is “AA (a compound having 20 or more is denoted as AA)”.
On to `CCCOC[C@H]1C(=O)N[C@@H]([C@@H](C)CC)C(=O)N(C)CC(=O)N(C)[C@H]2C/C=C\CCN(C2=O)[C@@H](Cc2ccc(C(F)(F)F)cc2)C(=O)N(C)CC(=O)N[C@@H](CCc2ccc(C(F)(F)F)c(OC)c2)C(=O)N2C[C@H](OCC)C[C@H]2C(=O)NC2(CC(C)(C)C2)C(=O)N(C)[C@@H](C2CCCC2)C(=O)N(C)[C@H](C(=O)N(C)C)CC(=O)N1C` [PP1657], for which, in assay [1], the equilibrium dissociation constant (Kd) stood at 60 pM. Besides, the IC50 in assay [2] turned out to be 2 nM. Also, the “HRAS/KRAS (KD ratio)” value in assay [3] is “B (a compound having 3 or more and less than 10 is denoted as B)”. In addition, the “NRAS/KRAS (KD ratio)” value in assay [4] was “A (a compound having 10 or more and less than 20 is denoted as A)”.
Take `CC[C@H](C)[C@@H]1NC(=O)[C@H](CC(F)F)N(C)C(=O)C[C@@H](C(=O)N(C)C)N(C)C(=O)[C@H](C2CCCC2)N(C)C(=O)C2(CC(C)(C)C2)NC(=O)[C@@H]2C[C@H](C)CN2C(=O)[C@H](CCc2cc(F)c(C(F)(F)F)c(F)c2)NC(=O)CN(C)C(=O)[C@H](Cc2ccc(C(F)(F)F)cc2)N2CC/C=C\C[C@@H](C2=O)N(C)C(=O)CN(C)C1=O` [PP1658]: the Kd in assay [1] worked out at 120 pM. Moreover, the IC50 in assay [2] is 3.8 nM. Moreover, the “HRAS/KRAS (KD ratio)” value in assay [3] was “A (a compound having 10 or more and less than 20 is denoted as A)”. Further, the “NRAS/KRAS (KD ratio)” value in assay [4] is “A (a compound having 10 or more and less than 20 is denoted as A)”.
With `CC[C@H](C)[C@@H]1NC(=O)[C@H](CC2CC2)N(C)C(=O)C[C@@H](C(=O)N(C)C)N(C)C(=O)[C@H](C2CCCC2)N(C)C(=O)C2(CC(C)(C)C2)NC(=O)[C@@H]2C[C@H](C)CN2C(=O)[C@H](CCc2cc(F)c(C(F)(F)F)c(F)c2)NC(=O)CN(C)C(=O)[C@H](Cc2ccc(C(F)(F)F)cc2)N2CC/C=C\C[C@@H](C2=O)N(C)C(=O)CN(C)C1=O` [PP1660], the Kd in assay [1] is 110 pM. Moreover, in assay [2], the IC50 was found to be 4.3 nM. Also, the “HRAS/KRAS (KD ratio)” value in assay [3] is “A (a compound having 10 or more and less than 20 is denoted as A)”. For the same compound, the “NRAS/KRAS (KD ratio)” value in assay [4] was “A (a compound having 10 or more and less than 20 is denoted as A)”.
`CCCC[C@H]1C(=O)N[C@@H]([C@@H](C)CC)C(=O)N(C)CC(=O)N(C)[C@H]2C/C=C\CCN(C2=O)[C@@H](Cc2ccc(C(F)(F)F)cc2)C(=O)N(C)CC(=O)N[C@@H](CCc2cc(F)c(C(F)(F)F)c(F)c2)C(=O)N2C[C@@H](C)C[C@H]2C(=O)NC2(CC(C)(C)C2)C(=O)N(C)[C@@H](C2CCCC2)C(=O)N(C)[C@H](C(=O)N(C)C)CC(=O)N1C` [PP1661]: the Kd in assay [1] was 190 pM. Further, the IC50 in assay [2] was found to be 5.7 nM. The “HRAS/KRAS (KD ratio)” value in assay [3] is “A (a compound having 10 or more and less than 20 is denoted as A)”. Moreover, the “NRAS/KRAS (KD ratio)” value in assay [4] is “A (a compound having 10 or more and less than 20 is denoted as A)”.
As for `CC[C@H](C)[C@@H]1NC(=O)[C@H](CC(C)C)N(C)C(=O)C[C@@H](C(=O)N(C)C)N(C)C(=O)[C@H](C2CCCC2)N(C)C(=O)C2(CC(C)(C)C2)NC(=O)[C@@H]2C[C@H](C)CN2C(=O)[C@H](CCc2cc(F)c(C(F)(F)F)c(F)c2)NC(=O)CN(C)C(=O)[C@H](Cc2ccc(C(F)(F)F)cc2)N2CC/C=C\C[C@@H](C2=O)N(C)C(=O)CN(C)C1=O` [PP1662], the Kd in assay [1] turned out to be 140 pM. For the same compound, the IC50 in assay [2] was 6.4 nM. The “HRAS/KRAS (KD ratio)” value in assay [3] is “B (a compound having 3 or more and less than 10 is denoted as B)”. The “NRAS/KRAS (KD ratio)” value in assay [4] was “A (a compound having 10 or more and less than 20 is denoted as A)”.
Regarding `CCCN(C)C(=O)[C@@H]1CC(=O)N(C)[C@@H](C)C(=O)N[C@@H]([C@@H](C)CC)C(=O)N(C)CC(=O)N(C)[C@H]2C/C=C\CCN(C2=O)[C@@H](Cc2ccc(C(F)(F)F)cc2)C(=O)N(C)CC(=O)N[C@@H](CCc2cc(F)c(C(F)(F)F)c(F)c2)C(=O)N2C[C@H](F)C[C@H]2C(=O)NC2(CC(C)(C)C2)C(=O)N(C)[C@@H](C2CCCC2)C(=O)N1C` [PP1663], the equilibrium dissociation constant (Kd) in assay [1] is 38 pM. Also, the IC50 in assay [2] is 3.6 nM. Also, the “HRAS/KRAS (KD ratio)” value in assay [3] is “A (a compound having 10 or more and less than 20 is denoted as A)”. The “NRAS/KRAS (KD ratio)” value in assay [4] is “AA (a compound having 20 or more is denoted as AA)”.
Regarding `CCCN(C)C(=O)[C@@H]1CC(=O)N(C)[C@@H](CC2CC2)C(=O)N[C@@H]([C@@H](C)CC)C(=O)N(C)CC(=O)N(C)[C@H]2C/C=C\CCN(C2=O)[C@@H](Cc2ccc(C(F)(F)F)cc2)C(=O)N(C)CC(=O)N[C@@H](CCc2cc(F)c(C(F)(F)F)c(F)c2)C(=O)N2C[C@H](F)C[C@H]2C(=O)NC2(CC(C)(C)C2)C(=O)N(C)[C@@H](C2CCCC2)C(=O)N1C` [PP1665], the equilibrium dissociation constant (Kd) in assay [1] turned out to be 66 pM. In assay [2], the IC50 turned out to be 3.1 nM. For the same compound, the “HRAS/KRAS (KD ratio)” value in assay [3] is “A (a compound having 10 or more and less than 20 is denoted as A)”. The “NRAS/KRAS (KD ratio)” value in assay [4] is listed as “AA (a compound having 20 or more is denoted as AA)”.
Turning to `CCCN(C)C(=O)[C@@H]1CC(=O)N(C)[C@@H](C)C(=O)N[C@@H]([C@@H](C)CC)C(=O)N(C)CC(=O)N(C)[C@H]2C/C=C\CCN(C2=O)[C@@H](Cc2ccc(C(F)(F)F)cc2)C(=O)N(C)CC(=O)N[C@@H](CCc2cc(F)c(C(F)(F)F)c(F)c2)C(=O)N2C[C@H](OCC)C[C@H]2C(=O)NC2(CCC2)C(=O)N(C)[C@@H](C2CCCC2)C(=O)N1C` [PP1666], in assay [1], the Kd is 76 pM. In assay [2], the IC50 was 8.1 nM. In assay [3], the “HRAS/KRAS (KD ratio)” value is “A (a compound having 10 or more and less than 20 is denoted as A)”. The “NRAS/KRAS (KD ratio)” value in assay [4] was “A (a compound having 10 or more and less than 20 is denoted as A)”.
`CCCOC[C@H]1C(=O)N[C@@H]([C@@H](C)CC)C(=O)N(C)CC(=O)N(C)[C@H]2C/C=C\CCN(C2=O)[C@@H](Cc2ccc(C(F)(F)F)cc2)C(=O)N(C)CC(=O)N[C@@H](CCc2cc(F)c(C(F)(F)F)c(F)c2)C(=O)N2C[C@H](OCC)C[C@H]2C(=O)NC2(CCC2)C(=O)N(C)[C@@H](C2CCCC2)C(=O)N(C)[C@H](C(=O)N(C)CCC)CC(=O)N1C` [PP1668]: the dissociation constant Kd in assay [1] was 130 pM. Also, in assay [2], the IC50 came to 5.3 nM. For the same compound, the “HRAS/KRAS (KD ratio)” value in assay [3] is “A (a compound having 10 or more and less than 20 is denoted as A)”. In addition, the “NRAS/KRAS (KD ratio)” value in assay [4] was “A (a compound having 10 or more and less than 20 is denoted as A)”.

The values above are taken from patent publication US20240158446A1, “CYCLIC COMPOUND HAVING SELECTIVE INHIBITORY ACTION ON KRAS OVER HRAS AND NRAS” (CHUGAI SEIYAKU KABUSHIKI KAISHA, priority 2021, published 2024).
